Source: publication PMC12228718, “A porin-like protein used by bacterial predators defines a wider lipid-trapping superfamily” (Nature Communications, 2025)
One block for each compound: values may come before it.

Key:
PopAhis = molecular target: T1, PopAhis (Bdellovibrio bacteriovorus, UniProt Q6MQN4); assay: liposome swelling assay (OD400); format: biochemical; conditions: relative to OmpF with L-arabinose = 100%; pH 7.0 proteoliposomes; passive permeation
T1 construct: gene Bd0427; mature PopA with internal His tag SSHHHHHHGSS inserted after A103 (loop 2); pelB leader at start; pET29b, E. coli BL21(DE3) RIPL; native folded, DDM-solubilised; homopentamer
T1 sequence (Q6MQN4 entry or part of it): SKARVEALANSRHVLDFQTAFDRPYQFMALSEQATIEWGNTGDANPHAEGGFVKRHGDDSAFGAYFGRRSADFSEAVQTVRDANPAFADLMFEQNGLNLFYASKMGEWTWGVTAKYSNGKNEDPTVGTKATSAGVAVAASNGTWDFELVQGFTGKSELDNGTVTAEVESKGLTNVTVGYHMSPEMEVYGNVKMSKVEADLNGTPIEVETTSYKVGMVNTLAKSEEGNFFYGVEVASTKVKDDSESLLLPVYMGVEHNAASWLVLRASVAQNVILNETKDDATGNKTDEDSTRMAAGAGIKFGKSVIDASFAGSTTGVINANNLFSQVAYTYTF

PopA (Bd0427; PopAΔSP) = molecular target: T2, PopA (Bd0427; PopAΔSP) (Bdellovibrio bacteriovorus, UniProt Q6MQN4); assay: X-ray crystallography (C222_[…] Å); format: binding; conditions: palmitate modelled in difference density behind loop 2 helix, carboxylate to R88; ligand not added, placed after AlphaFold3 suggestion
T2 construct: aa 21-353, signal peptide removed; selenomethionyl form A phased; homopentamer
T2 sequence (Q6MQN4 entry or part of it, stated change not applied): as the sequence (Q6MQN4 entry or part of it) above

[1] = molecular target: PopAhis (mature PopA with an internal His tag in loop 2), natively folded (B. bacteriovorus HD100); assay: cryo-EM structure; native PopAhis, 0.02 mg/mL in 50 mM Tris pH 8, 150 mM NaCl, 0.03% w/v DDM; 2.85 Å in C1 symmetry, 2.66 Å in C5 symmetry
[2] = molecular target: PopAΔSP (Bd0427, aa 21-353), refolded (B. bacteriovorus HD100); assay: crystal structure; refolded PopAΔSP in β-OG detergent; C222(1) crystal form, 2.8 Å; five copies in the asymmetric unit

Compound: C[C@H](N)C(=O)O [alanine]
relative swelling rate (PopAhis): only able to permit the passage of small substrates, notably glycine and alanine (Fig. 3e)

Compound: NCC(=O)O [glycine]
relative swelling rate (PopAhis): only able to permit the passage of small substrates, notably glycine and alanine (Fig. 3e)

Compound: CCCCCCCCCCCCCCCC(=O)O [palmitate]
X-ray crystallography (C222_1, 2.8 Å) (PopA (Bd0427; PopAΔSP)): Refinement verified that palmitate fits the density well (Fig. 2h)

stoichiometry N [1]: 5
Compound: PopAhis (mature PopA with an internal His tag in loop 2), natively folded (natural protein)

stoichiometry N [2]: 5
Compound: PopAΔSP (Bd0427, aa 21-353), refolded (natural protein)
